Our source for the ED50, IC50 and L/H ratio values is patent US20050256103A1, “Indole derivative having piperidine ring” (Eisai Co., Ltd., priority 2004, published 2005).

pIC50: −log10 of the molar value. Like-named read-outs stand apart in the source and are kept apart here.

In one test the target is T1, serotonin 1A receptor (Mus musculus, UniProt Q64264).
T1 construct: into the rectum of CD-1 (ICR) male mice (25-45 g); from tissue; host or cells: living CD-1 (ICR) male mice (in vivo)
T1 sequence (Q64264 1-421): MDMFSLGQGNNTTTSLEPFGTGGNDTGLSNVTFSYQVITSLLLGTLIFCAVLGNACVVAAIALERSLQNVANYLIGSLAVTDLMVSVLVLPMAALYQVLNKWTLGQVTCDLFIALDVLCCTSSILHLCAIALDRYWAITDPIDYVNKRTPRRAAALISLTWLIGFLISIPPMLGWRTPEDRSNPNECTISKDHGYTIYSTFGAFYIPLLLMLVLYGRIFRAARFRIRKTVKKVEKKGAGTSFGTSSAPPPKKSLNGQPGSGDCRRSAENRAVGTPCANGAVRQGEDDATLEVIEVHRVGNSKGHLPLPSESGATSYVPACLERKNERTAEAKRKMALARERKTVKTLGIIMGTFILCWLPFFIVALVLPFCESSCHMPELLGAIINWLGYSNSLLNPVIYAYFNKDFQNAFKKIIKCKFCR
Kind of test: Antagonistic effect on serotonin 1A receptor agonist (8-OH-DPAT)-induced hypothermia in mouse. It is filed as in vivo. Conditions: CD-1 (ICR) male mice; inhibition of hypothermia by 8-OH-DPAT 0.5 mg/kg sc; test substance 15 minutes before agonist. The procedure:
(1) A thermistor probe was inserted at a depth of approximately 2 cm into the rectum of CD-1 (ICR) male mice (25-45 g), so as to measure the body temperature thereof. Body temperature is decreased by subcutaneous administration of serotonin 1A receptor agonist (8-hydroxy-dipropylaminotetralin (8-OH-DPAT) 0;5 mg/kg. Since a serotonin 1A antagonist inhibits such action, the antagonistic effect of a test substance to a serotonin 1A receptor was evaluated using the inhibitory effect of the hypothermia as an index. The test results are shown in Table 2 indicated below. A test substance was administered 15 minutes before the administration of the serotonin 1A agonist. A serotonin 1A partial agonist alone decreases the body temperature, depending on the degree of the agonistic action thereof. In addition, it has a weak antagonistic effect on 8-OH-DPAT-induced hypothermia.

Another test deals with T2, 5-HT1A receptor (Sus scrofa, UniProt A0A4X1UTF5).
T2 construct: Swine hippocampus was homogenized in a 50 mM Tris-Hcl buffer; from tissue; host or cells: swine hippocampus, membrane fraction
T2 sequence (A0A4X1UTF5 1-422): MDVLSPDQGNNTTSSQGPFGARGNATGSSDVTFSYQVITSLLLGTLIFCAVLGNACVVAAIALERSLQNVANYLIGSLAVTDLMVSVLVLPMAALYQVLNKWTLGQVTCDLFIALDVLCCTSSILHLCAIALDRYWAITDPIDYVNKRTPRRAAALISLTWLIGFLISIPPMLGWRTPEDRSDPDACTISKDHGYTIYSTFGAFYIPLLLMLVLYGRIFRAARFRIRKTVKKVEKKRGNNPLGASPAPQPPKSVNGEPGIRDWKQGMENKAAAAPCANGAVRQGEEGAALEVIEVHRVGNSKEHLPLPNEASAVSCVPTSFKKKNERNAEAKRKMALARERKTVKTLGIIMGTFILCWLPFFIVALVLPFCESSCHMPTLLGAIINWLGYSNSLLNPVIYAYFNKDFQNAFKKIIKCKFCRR
Briefly: Affinity for serotonin 1A receptor: inhibition of [3H]MPPF binding in swine hippocampal membrane fraction. The note with it: for pIC50: swine hippocampal membrane, 37°C 30 min; for L/H ratio: low affinity IC50 divided by high affinity IC50, 1 or smaller = no intrinsic activity, 2 or greater = intrinsic activity. An excerpt:
(1) The affinity of a test substance for a 5-HT1A receptor was examined by an inhibition experiment, in which the inhibitory effect of the test substance against the binding of [^3H]-4-(2′-methoxy)phenyl-1-(2′-(N-2″-pyridinyl)-p-fluorobenzamido)ethyl-piperazine (MPPF) that selectively binds to the 5-HT1A receptor in a swine hippocampal membrane fraction was examined. The 5-HT1A receptor that is a G-protein binding receptor becomes a G-protein binding state with addition of MgCl2. In contrast, it becomes a G-protein non-binding state with addition of guanylylimido diphosphate (Gpp(NH)p). […] Thus, both the affinity of a test substance to the receptor that was in a state of not binding to the G-protein and the affinity of the test substance to the receptor that was in a state of binding to the G-protein were obtained. Then, the obtained values were compared to each other, so as to estimate the level of the intrinsic activity of the test substance. Theoretically, when the value (L/H) obtained by dividing the affinity of a test substance to the receptor that is in a low affinity state (IC50 value) by the affinity of a test substance to the receptor that is in a high affinity state (IC50 value) is 1 or less, the intrinsic activity thereof is zero. The greater this value, the higher the intrinsic activity that can be obtained.
Swine hippocampus was homogenized in a 50 mM Tris-Hcl buffer (pH 7.4; hereinafter referred to as buffer A) that had been cooled on ice. The suspension was centrifuged at 40,000×g for 15 minutes. The obtained pellet was suspended in buffer solution A, and the thus obtained solution was then centrifuged at 40,000×g for 15 minutes. The same operation was repeated 2 or 3 times. The finally obtained pellet was suspended in a buffer solution A in an amount 10 times the wet weight of the swine hippocampus, so as to obtain a membrane fraction. The obtained membrane fraction was stored at −80° C. until use.
A mixture (0.5 ml) used for incubation comprised an appropriate amount of the membrane fraction, a test substance with a desired concentration, MgCl2 (final concentration: 10 mM) or Gpp(NH)p (final concentration: 1 mM), [^3H]MPPF (final concentration: 0.5 nM), dimethyl sulfoxide (final concentration: 1% (v/v)), and a 50 mM Tris-Hcl buffer (pH 7.4). The reaction was initiated with addition of the membrane fraction, and the mixture was incubated at 37° C. for 30 minutes. After completion of the incubation, the mixture was subjected to vacuum filtration with a glass filter, using Cell Harvester. The filter was washed with buffer solution A that had been cooled on ice. Thereafter, radioactivity binding to the receptor was measured with a liquid scintillation counter. Non-specific binding was defined as binding detected in the presence of 10 μM WAY-100,635.

[1] abbreviates: [3H]MPPF 0.5 nM, receptor in high affinity (G-protein binding, MgCl2 10 mM) state, read-out: High affinity IC50.
The mark [2] stands for this setting: [3H]MPPF 0.5 nM, receptor in low affinity (G-protein non-binding, Gpp(NH)p 1 mM) state, read-out: Low affinity IC50.

What is called pIC50 is −log10 of the IC50, conventionally taken in molar units. For the compound `COc1cc2nc(C)oc2cc1CCN1CCC(n2ccc3ccc(C(N)=O)cc32)CC1` [Compound 8, 1-{1-[2-(5-methoxy-2-methylbenzoxazol-6-yl)ethyl]piperidin-4-yl}-1H-indole-6-carboxamide], the ED50 on serotonin 1A receptor is on record as 0.07 mg/kg, sc. For the same compound, the negative-log IC50 (pIC50) on 5-HT1A receptor (setting [1]) was 9.66; at 5-HT1A receptor (setting [2]), 9.64. In addition, the L/H ratio on 5-HT1A receptor amounted to 1.
As to `COc1cc2cccnc2cc1CCN1CCC(n2ccc3ccc(C(N)=O)cc32)CC1` [Compound 51, 1-{1-[2-(6-methoxyquinolin-7-yl)ethyl]piperidin-4-yl}-1H-indole-6-carboxamide], the ED50 on serotonin 1A receptor was 0.66 mg/kg, sc. Also, the pIC50 on 5-HT1A receptor (High affinity IC50, [3H]MPPF 0.5 nM, receptor in high affinity (G-protein binding, MgCl2 10 mM) state) is 9.74; on 5-HT1A receptor (Low affinity IC50, [3H]MPPF 0.5 nM, receptor in low affinity (G-protein non-binding, Gpp(NH)p 1 mM) state), 9.77. The L/H ratio on 5-HT1A receptor amounted to 0.9.
For the compound `COc1cc2c(cc1CCN1CCC(n3ccc4ccc(C(N)=O)cc43)CC1)OCCO2` [Compound 31, 1-{1-[2-(7-methoxy-2,3-dihydrobenz[1,4]dioxin-6-yl)ethyl]piperidin-4-yl}-1H-indole-6-carboxamide], the ED50 on serotonin 1A receptor is 0.04 mg/kg, sc. In addition, the negative-log IC50 (pIC50) is 9.80 at 5-HT1A receptor (setting [1]) and 9.82 at 5-HT1A receptor (setting [2]). Besides, the L/H ratio on 5-HT1A receptor was 0.9.
Consider `COc1cc2c(cc1CCN1CCC(n3ccc4ccc(C(N)=O)cc43)CC1)C(=O)CC2` [Compound 26, 1-{1-[2-(6-methoxy-3-oxoindan-5-yl)ethyl]piperidin-4-yl}-1H-indole-6-carboxamide], for which the ED50 on serotonin 1A receptor is 0.25 mg/kg, sc. For the same compound, the results for the pIC50 on 5-HT1A receptor (setting [1]) and at 5-HT1A receptor (setting [2]) were 9.80 and 9.70, respectively. For the same compound, the L/H ratio at 5-HT1A receptor is reported as 1.3.
Take `COc1ccc2c(c1CCN1CCC(n3ccc4ccc(C(N)=O)cc43)CC1)CCN(C)C2=O` [Compound 34, 1-(1-(2-(6-methoxy-2-methyl-1-oxo-1,2,3,4-tetrahydroisoquinolin-5-yl)ethyl)piperidin-4-yl)-1H-indole-6-carboxamide]: the ED50 at serotonin 1A receptor was 0.37 mg/kg, sc. Besides, the figures for the pIC50 at 5-HT1A receptor (setting [1]) and on 5-HT1A receptor (setting [2]) were 9.59 and 9.70, respectively. The L/H ratio on 5-HT1A receptor worked out at 0.8.
Turning to `COc1ccc2c(c1CCN1CCC(n3ccc4ccc(C(N)=O)cc43)CC1)OC(C)(C)CC2=O` [Compound 22, 1-{1-[2-(7-methoxy-2,2-dimethyl-4-oxochroman-8-yl)ethyl]piperidin-4-yl}-1H-indole-6-carboxamide], the ED50 on serotonin 1A receptor is given as 0.1 mg/kg, sc. The pIC50 was 9.89 at 5-HT1A receptor (setting [1]) and 10.00 at 5-HT1A receptor (setting [2]). Besides, at 5-HT1A receptor, the L/H ratio is 0.8.
Take `COc1ccc2sc(C)nc2c1CCN1CCC(n2ccc3ccc(C(N)=O)cc32)CC1` [Compound 27, 1-{1-[2-(5-methoxy-2-methylbenzothiazol-4-yl)ethyl]piperidin-4-yl}-1H-indole-6-carboxamide]: at serotonin 1A receptor, the ED50 was 0.42 mg/kg, sc. Moreover, the figures for the negative-log IC50 (pIC50) at 5-HT1A receptor (setting [1]) and at 5-HT1A receptor (setting [2]) were 9.64 and 9.59, respectively. Besides, the L/H ratio at 5-HT1A receptor was determined as 1.1.
For the compound `COc1cc2c(cc1CCN1CCC(n3ccc4ccc(C(N)=O)cc43)CC1)N(C)C(=O)CC2` [Compound 57, 1-{1-[2-(6-methoxy-1-methyl-2-oxo-1,2,3,4-tetrahydroquinolin-7-yl)ethyl]piperidin-4-yl}-1H-indole-6-carboxamide], the ED50 on serotonin 1A receptor was 0.1 mg/kg, sc. For the same compound, the pIC50 on 5-HT1A receptor (setting [1]) was 9.74; at 5-HT1A receptor (setting [2]) it was 9.62. For the same compound, the L/H ratio at 5-HT1A receptor was determined as 1.3.
As for `COc1ccc2oc(C)nc2c1CCN1CCC(n2ccc3ccc(C(N)=O)cc32)CC1` [Compound 7, 1-{1-[2-(5-methoxy-2-methylbenzoxazol-4-yl)ethyl]piperidin-4-yl)-1H-indole-6-carboxamide], the ED50 on serotonin 1A receptor is listed as 0.38 mg/kg, sc. In addition, the pIC50 was 9.39 at 5-HT1A receptor (setting [1]) and 9.52 on 5-HT1A receptor (setting [2]). Also, the L/H ratio on 5-HT1A receptor is recorded as 0.7.
In the case of `CCc1nc2ccc(OC)c(CCN3CCC(n4ccc5ccc(C(N)=O)cc54)CC3)c2o1` [Compound 5], the ED50 on serotonin 1A receptor is on record as 0.24 mg/kg, sc. In addition, the pIC50 at 5-HT1A receptor (setting [1]) is 9.24; at 5-HT1A receptor (setting [2]), 9.35. Also, the L/H ratio at 5-HT1A receptor came to 0.8.
With `CCc1nc2cc(CCN3CCC(n4ccc5ccc(C(N)=O)cc54)CC3)c(OC)cc2o1` [Compound 6, 1-{1-[2-(2-ethyl-6-methoxybenzoxazol-5-yl)ethyl]piperidin-4-yl}-1H-indole-6-carboxamide], on serotonin 1A receptor, the ED50 is 0.35 mg/kg, sc. Further, the pIC50 at 5-HT1A receptor (setting [1]) and on 5-HT1A receptor (setting [2]) was 9.70 throughout. Further, at 5-HT1A receptor, the L/H ratio is listed as 1.
For the compound `COc1ccc2c(=O)c(C)c(C)oc2c1CCN1CCC(n2ccc3ccc(C(N)=O)cc32)CC1` [Compound 36, 1-{1-[2-(7-methoxy-2,3-dimethyl-4-oxo-4H-chromen-8-yl)ethyl]piperidin-4-yl}-1H-indole-6-carboxamide], the ED50 at serotonin 1A receptor is 0.2 mg/kg, sc. Besides, the negative-log IC50 (pIC50) at 5-HT1A receptor (setting [1]) is 9.59; at 5-HT1A receptor (setting [2]) it was 9.85. In addition, the L/H ratio at 5-HT1A receptor was found to be 0.5.
Regarding `COc1ccc2c(c1CCN1CCC(n3ccc4ccc(C(N)=O)cc43)CC1)OCCC2O` (centres unmarked) [Compound 46, 1-{1-[2-(4-hydroxy-7-methoxychroman-8-yl)ethyl]piperidin-4-yl}-1H-indole-6-carboxamide], the ED50 on serotonin 1A receptor is 0.3 mg/kg, sc. In addition, the negative-log IC50 (pIC50) on 5-HT1A receptor (setting [1]) is 9.62; on 5-HT1A receptor (setting [2]) it was 9.48. Also, the L/H ratio on 5-HT1A receptor is 1.4.
Consider `COc1cc2onc(C)c2cc1CCN1CCC(n2ccc3ccc(C(N)=O)cc32)CC1` [Compound 2, 1-{1-[2-(6-methoxy-3-methylbenzo[d]isoxazol-5-yl)ethyl]piperidin-4-yl}-1H-indole-6-carboxamide], for which, at serotonin 1A receptor, the ED50 is 0.4 mg/kg, sc. Besides, the pIC50 at 5-HT1A receptor (setting [1]) is 9.57; on 5-HT1A receptor (setting [2]), 9.46. Further, the L/H ratio on 5-HT1A receptor turned out to be 1.3.
